According to patent US8962608B2, “Cycloalkylnitrile pyrazole carboxamides as janus kinase inhibitors” (Merck Sharp & Dohme Corp., priority 2011, dated 2015):

These compounds were tested against JAK2 (recombinant purified GST-tagged catalytic domain) (Homo sapiens (Human), UniProt O60674) (assay: biochemical).
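Also: biochemical JAK kinase assay with HTRF detection.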

Sequence of JAK2 (recombinant purified GST-tagged catalytic domain) (O60674 849-1124): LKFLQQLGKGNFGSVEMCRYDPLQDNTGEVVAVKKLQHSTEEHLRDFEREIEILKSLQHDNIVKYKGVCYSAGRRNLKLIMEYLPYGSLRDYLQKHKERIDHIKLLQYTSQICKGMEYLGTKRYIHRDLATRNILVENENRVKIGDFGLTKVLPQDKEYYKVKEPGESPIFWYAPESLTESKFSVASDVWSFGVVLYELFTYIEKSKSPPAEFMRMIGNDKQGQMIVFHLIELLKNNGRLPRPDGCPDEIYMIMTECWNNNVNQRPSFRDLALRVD

| IC50 | Structure (SMILES) |
| --- | --- |
| 18 nM | CS(=O)(=O)c1ccc(Nc2nn(C3CCCC[C@H]3C#N)cc2C(N)=O)cc1 (mixture of isomers) [Example 2-14, 1-[(1S,2R and 1R,2S)-2-cyanocyclohexyl]-3-{[4-(methylsulfonyl)phenyl]amino}-1H-pyrazole-4-carboxamide] |
| 22 nM | CC1(N[C@H]2CCC(n3cc(C(N)=O)c(Nc4ccc(Cl)cc4)n3)[C@@H](C#N)C2)COC1 (single isomer, unassigned) [Example 28-207, 3-[(4-chlorophenyl)amino]-1-{(1S,2S,4S or 1R,2R,4R)-2-cyano-4-[(3-methyloxetan-3-yl)amino]cyclohexyl}-1H-pyrazole-4-carboxamide] |
| 14 nM | CN(C)[C@H]1CC[C@H](n2cc(C(N)=O)c(Nc3ccc(C(F)(F)F)cc3)n2)[C@@H](C#N)C1 (single isomer, unassigned) [Example 28-188, 1-[(1S,2S,4S or 1R,2R,4R)-2-cyano-4-(dimethylamino)cyclohexyl]-3-{[4-(trifluoromethyl)phenyl]amino}-1H-pyrazole-4-carboxamide] |
| 92 nM | CN(C)[C@@H]1CC[C@H](n2cc(C(N)=O)c(Nc3ccc(OC(F)(F)F)cc3)n2)[C@@H](C#N)C1 (single isomer, unassigned) [Example 28-54, 1-[(1S,2S,4R or 1R,2R,4S)-2-cyano-4-(dimethylamino)cyclohexyl]-3-{[4-(trifluoromethoxy)phenyl]amino}-1H-pyrazole-4-carboxamide] |
| 5 nM | CS(=O)(=O)c1ccc(Nc2nn([C@H]3CC[C@H](N4CC5(CCC5)C4)C[C@@H]3C#N)cc2C(N)=O)cc1 (single isomer, unassigned) [Example 28-130, 1-[(1S,2S,4S or 1R,2R,4R)-4-(2-azaspiro[3.3]hept-2-yl)-2-cyanocyclohexyl]-3-{[4-(methylsulfonyl)phenyl]amino}-1H-pyrazole-4-carboxamide] |
| 19 nM | N#C[C@@H]1C[C@H](OCC2CC2)CC[C@H]1n1cc(C(N)=O)c(Nc2ccc([C@@H](O)C(F)(F)F)cc2)n1 (single isomer, unassigned) [Example 26-8, 1-[(1R,2R,4R or 1S,2S,4S)-2-cyano-4-(cyclopropylmethoxy)cyclohexyl]-3-({4-[(1R or 1S)-2,2,2-trifluoro-1-hydroxyethyl]phenyl}amino)-1H-pyrazole-4-carboxamide] |
| 2 nM | CN(C(C1CC1)C1CC1)[C@H]1CC[C@H](n2cc(C(N)=O)c(Nc3ccc(S(=O)(=O)C(F)(F)F)cc3)n2)[C@@H](C#N)C1 (single isomer, unassigned) [Example 28-178, 1-{(1S,2S,4S or 1R,2R,4R)-2-cyano-4-[(dicyclopropyl-methyl)(methyl)amino]cyclo-hexyl}-3-({4-[(trifluoromethyl)sulfonyl]phen-yl}amino)-1H-pyrazole-4-carboxamide] |
| 35 nM | CN[C@@H]1CC[C@H](n2cc(C(N)=O)c(Nc3ccc(Cl)c(F)c3)n2)[C@@H](C#N)C1 (single isomer, unassigned) [Example 28-39, 3-[(4-chloro-3-fluorophenyl)amino]-1-[(1S,2S,4R or 1R,2R,4S)-2-cyano-4-(methylamino)cyclohexyl]-1H-pyrazole-4-carboxamide] |
| 3 nM | N#C[C@H]1CCCC[C@@H]1n1cc(C(N)=O)c(Nc2ccc(C=O)cc2)n1 (single isomer, unassigned) [Example 17-25, 1-[(1S,2S or 1R,2R)-2-cyanocyclohexyl]-3-[(4-formylphenyl)amino]-1H-pyrazole-4-carboxamide] |
| 1 nM | N#C[C@H]1CCCC[C@@H]1n1cc(C(N)=O)c(Nc2ccc(S(=O)(=O)N3CCOCC3)cc2)n1 (single isomer, unassigned) [Example 17-99, 1-[(1R,2R or 1S,2S)-2-cyanocyclohexyl]-3-{[4-(morpholin-4-ylsulfonyl)phenyl]amino}-1H-pyrazole-4-carboxamide] |
| 12 nM | C[C@@H](N[C@H]1CC[C@H](n2cc(C(N)=O)c(Nc3ccc(S(=O)(=O)C(F)(F)F)cc3)n2)[C@@H](C#N)C1)C1CC1 (single isomer, unassigned) [Example 28-182, 1-[(1S,2S,4S or 1R,2R,4R)-2-cyano-4-{[(1R)-1-cyclopropylethyl]amino}cyclo-hexyl]-3-({4-[(trifluoromethyl)sulfonyl]phen-yl}amino)-1H-pyrazole-4-carboxamide] |
| 18 nM | CN(C)[C@H]1CC[C@H](n2cc(C(N)=O)c(Nc3ccc(OC(F)(F)F)cc3)n2)[C@@H](C#N)C1 (single isomer, unassigned) [Example 28-86, 1-[(1S,2S,4S or 1R,2R,4R)-2-cyano-4-(dimethylamino)cyclohexyl]-3-{[4-(trifluoromethoxy)phenyl]amino}-1H-pyrazole-4-carboxamide] |
| 21 nM | N#C[C@H]1CCCC[C@@H]1n1cc(C(N)=O)c(Nc2cnc3cc(Cl)ccc3c2)n1 (single isomer, unassigned) [Example 17-61, 3-[(7-chloroquinolin-3-yl)amino]-1-[(1S,2S or 1R,2R)-2-cyanocyclohexyl]-1H-pyrazole-4-carboxamide] |
| 15 nM | CS(=O)(=O)c1ccc(Nc2nn([C@H]3CC[C@@H](N4CC5(CCC5)C4)C[C@@H]3C#N)cc2C(N)=O)cc1 (single isomer, unassigned) [Example 28-145, 1-[(1S,2S,4R or 1R,2R,4S)-4-(2-azaspiro[3.3]hept-2-yl)-2-cyanocyclohexyl]-3-{[4-(methylsulfonyl)phenyl]amino}-1H-pyrazole-4-carboxamide] |
| 21 nM | CN(C)[C@@H]1CC[C@H](n2cc(C(N)=O)c(Nc3ccc(C(F)(F)F)cc3)n2)[C@@H](C#N)C1 (single isomer, unassigned) [Example 28-189, 1-[(1S,2S,4R or 1R,2R,4S)-2-cyano-4-(dimethylamino)cyclohexyl]-3-{[4-(trifluoromethyl)phenyl]amino}-1H-pyrazole-4-carboxamide] |
| 20 nM | N#C[C@H]1C[C@H](O)CC[C@@H]1n1cc(C(N)=O)c(Nc2ccc(Cl)nc2)n1 (single isomer, unassigned) [Example 25-12, 3-[(6-chloropyridin-3-yl)amino]-1-[(1S,2S,4R or 1R,2R,4S)-2-cyano-4-hydroxycyclohexyl]-1H-pyrazole-4-carboxamide] |
| 11 nM | CCNC1CCC(n2cc(C(N)=O)c(Nc3ccc(S(=O)(=O)C(F)(F)F)cc3)n2)[C@@H](C#N)C1 (mixture of isomers) [Example 27-5, 1-[(1S,2S and 1R,2R)-2-cyano-4-(ethylamino)cyclohexyl]-3-({4-[(trifluoromethyl)sulfonyl]phenyl}amino)-1H-pyrazole-4-carboxamide] |
| 102 nM | N#C[C@@H]1C[C@@H](OCC2CC2)CC[C@H]1n1cc(C(N)=O)c(Nc2ccc(F)cc2)n1 (single isomer, unassigned) [Example 26-10, 1-[(1R,2R,4S or 1S,2S,4R)-2-cyano-4-(cyclopropylmethoxy)cyclohexyl]-3-[(4-fluorophenyl)amino]-1H-pyrazole-4-carboxamide] |
| 6 nM | CN(CC(F)(F)F)[C@H]1CCC(n2cc(C(N)=O)c(Nc3ccnc(F)c3)n2)[C@@H](C#N)C1 (single isomer, unassigned) [Example 28-233, 1-{(1S,2S,4S or 1R,2R,4R)-2-cyano-4-[methyl(2,2,2-trifluoroethyl)amino]cyclo-hexyl}-3-[(2-fluoropyridin-4-yl)amino]-1 H-pyrazole-4-carboxamide] |
| 10 nM | CS(=O)(=O)c1ccc(Nc2nn(C3CCCC[C@@H]3C#N)cc2C(N)=O)cc1F (mixture of isomers) [Example 17-8, 1-[(1S,2S and 1R,2R)-2-cyanocyclohexyl]-3-{[3-fluoro-4-(methylsulfonyl)phenyl]amino}-1H-pyrazole-4-carboxamide] |
| 170 nM | CN(C(C1CC1)C1CC1)[C@@H]1CC[C@H](n2cc(C(N)=O)c(Nc3ccc(S(=O)(=O)C(F)(F)F)cc3)n2)[C@@H](C#N)C1 (single isomer, unassigned) [Example 28-179, 1-{(1S,2S,4R or 1R,2R,4S)-2-cyano-4-[(dicyclopropyl-methyl)(methyl)amino]cyclo-hexyl}-3-({4-[(trifluoromethyl)sulfonyl]phen-yl}amino)-1H-pyrazole-4-carboxamide] |
| 47 nM | CC1(CN[C@H]2CCC(n3cc(C(N)=O)c(Nc4ccc(Cl)cc4)n3)[C@@H](C#N)C2)COC1 (single isomer, unassigned) [Example 28-217, 3-[(4-chlorophenyl)amino]-1-[(1S,2S,4S or 1R,2R,4R)-2-cyano-4-{[(3-methyloxetan-3-yl)methyl]amino}cyclohexyl]-1H-pyrazole-4-carboxamide] |
| 5 nM | N#C[C@H]1CCCCC1n1cc(C(N)=O)c(Nc2ccc(S(=O)(=O)C(F)F)cc2)n1 (mixture of isomers) [Example 17-9, 1-[(1S,2S and 1R,2R)-2-cyanocyclohexyl]-3-({4-[(difluoromethyl)sulfonyl]phenyl}amino)-1H-pyrazole-4-carboxamide] |
| 135 nM | CN(CC1CC1)[C@@H]1CC[C@H](n2cc(C(N)=O)c(Nc3ccc(C(F)(F)F)cc3)n2)[C@@H](C#N)C1 (single isomer, unassigned) [Example 30-2, 1-{(1S,2S,4R or 1R,2R,4S)-2-cyano-4-[(cyclopropyl-methyl)(methyl)amino]cyclo-hexyl}-3-{[4-(trifluoromethyl)phenyl]amino}-1H-pyrazole-4-carboxamide] |
| 39 nM | CC1(C)CN([C@H]2CC[C@H](n3cc(C(N)=O)c(Nc4ccc(C(F)(F)F)cc4)n3)[C@@H](C#N)C2)C1 (single isomer, unassigned) [Example 28-202, 1-[(1S,2S,4S or 1R,2R,4R)-2-cyano-4-(3,3-dimethylazetidin-1-yl)cyclohexyl]-3-{[4-(trifluoromethyl)phenyl]amino}-1H-pyrazole-4-carboxamide] |
| 39 nM | N#C[C@H]1CCCC[C@@H]1n1cc(C(N)=O)c(Nc2ccc(OC(F)F)nc2)n1 (racemic) [Example 17-102, 1-[(1S,2S and 1R,2R)-2-cyanocyclohexyl]-3-{[6-(difluoromethoxy)pyridin-3-yl]amino}-1H-pyrazole-4-carboxamide] |
